Results from US20090163476A1, “N-Phenyl Benzamide Derivatives as Sirtuin Modulators” (Sirtris Pharmaceuticals, Inc., priority 2005, published 2009).
pIC50: −log10 of the molar value.

Experiments:
SIRT1 = molecular target: T1, SIRT1 (Homo sapiens, UniProt Q96EB6); test: SIRT1 fluorescence polarization or mass spectrometry based assay (format not given); assay type: biochemical; settings: inhibition of SIRT1 (Table 5)
T1 sequence (Q96EB6 1-747): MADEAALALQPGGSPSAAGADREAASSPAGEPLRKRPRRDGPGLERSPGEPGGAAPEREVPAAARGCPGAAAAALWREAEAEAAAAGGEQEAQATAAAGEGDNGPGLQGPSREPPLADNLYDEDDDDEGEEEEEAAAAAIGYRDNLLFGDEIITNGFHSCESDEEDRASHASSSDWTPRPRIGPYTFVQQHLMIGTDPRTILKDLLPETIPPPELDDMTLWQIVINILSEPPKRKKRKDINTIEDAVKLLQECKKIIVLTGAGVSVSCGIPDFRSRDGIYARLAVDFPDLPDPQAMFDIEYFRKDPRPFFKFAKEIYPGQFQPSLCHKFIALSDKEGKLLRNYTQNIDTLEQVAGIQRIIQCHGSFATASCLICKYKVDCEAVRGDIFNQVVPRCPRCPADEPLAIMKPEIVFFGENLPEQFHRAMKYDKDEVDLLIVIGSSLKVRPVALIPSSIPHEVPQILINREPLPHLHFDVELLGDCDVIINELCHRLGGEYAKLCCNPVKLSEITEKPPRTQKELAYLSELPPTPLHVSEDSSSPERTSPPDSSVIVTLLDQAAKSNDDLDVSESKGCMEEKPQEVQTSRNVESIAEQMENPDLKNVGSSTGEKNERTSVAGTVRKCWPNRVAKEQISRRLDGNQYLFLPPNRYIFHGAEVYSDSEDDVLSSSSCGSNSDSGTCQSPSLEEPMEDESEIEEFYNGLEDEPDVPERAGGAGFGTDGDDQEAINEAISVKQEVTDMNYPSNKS

human SIRT3 = molecular target: T2, human SIRT3 (Homo sapiens, UniProt Q9NTG7); test: Fluorescence polarization assay of SIRT3 activity (Histone H4-based peptide substrate); assay type: biochemical; settings: inhibition of SIRT3 (Table 7)
T2 construct: The SIRT3 protein used in the assays corresponded to amino acid residues 102-399 of human SIRT3; His-tag (N); made in house; host or cells: E. coli
T2 sequence (Q9NTG7 102-399): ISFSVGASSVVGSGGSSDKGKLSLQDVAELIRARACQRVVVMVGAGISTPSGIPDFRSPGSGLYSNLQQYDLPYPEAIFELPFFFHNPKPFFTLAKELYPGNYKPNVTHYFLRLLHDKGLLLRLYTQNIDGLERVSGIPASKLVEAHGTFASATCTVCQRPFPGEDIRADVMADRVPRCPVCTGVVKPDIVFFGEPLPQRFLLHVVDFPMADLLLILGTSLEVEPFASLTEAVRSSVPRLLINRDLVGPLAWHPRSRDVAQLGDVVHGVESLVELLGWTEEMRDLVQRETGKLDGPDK
Text: A fluorescence polarization assay was used to identify modulators of SIRT3 activity. The same assay may be used to identify modulators of any sirtuin protein. The assay utilizes a peptide substrate based on a fragment of Histone H4, a known sirtuin deacetylation target. The substrate contains a peptide having 14 amino acid residues as follows: Biotin-GASSHSK(Ac)VLK(MR121) (SEQ ID NO: 3) wherein K(Ac) is an acetylated lysine residue. The peptide is labeled with the fluorophore MR121 (excitation 635 nm/emission 680 nm) at the C-terminus and biotin at the N-terminus.
The peptide substrate is exposed to a sirtuin protein in the presence of NAD^+ to allow deacetylation of the substrate and render it sensitive to cleavage by trypsin. Trypsin is then added and the reaction is carried to completion (i.e., the deacetylated substrate is cleaved) releasing the MR121 fragment. Streptavidin is then added to the reaction where it can bind both the uncleaved substrate (i.e., any remaining acetylated substrate) and the non-fluorescent portion of the cleaved peptide substrate (i.e., the biotin containing fragment). The fluorescence polarization signal observed for the full length peptide substrate bound to streptavidin is higher than the fluorescence polarization signal observed for the released MR121C-terminal fragment. Therefore, the fluorescence polarization obtained is inversely proportional to the level of deacetylation (e.g., the signal is inversely proportional to the activity of the sirtuin protein). Results are read on a microplate fluorescence polarization reader (Molecular Devices Spectramax MD) with appropriate excitation and emission filters.
The fluorescence polarization assays may be conducted as follows: 0.5 μM peptide substrate and 50 μM βNAD^+ is incubated with 2 nM of SIRT3 for 60 minutes at 37° C. in a reaction buffer (25 mM Tris-acetate pH8, 137 mM Na—Ac, 2.7 mM K—Ac, 1 mM Mg—Ac, 0.1% Pluronic F127, 10 mM CaCl2, 1 mM TCEP, 0.025% BSA). Test compounds are solubilized in DMSO and are added to the reaction at 11 concentrations ranging from 0.7 μM to 100 μM. The SIRT3 protein used in the assays corresponded to amino acid residues 102-399 of human SIRT3 with an N-terminal His-tag. […] Fluorescent polarization is determined at excitation (650 nm) and emissions (680 nm) wavelengths. The level of activity of the sirtuin protein in the presence of the various concentrations of test compound are then determined and may be compared to the level of activity of the sirtuin protein in the absence of the test compound, and/or the level of activity of the sirtuin proteins in the negative control (e.g., level of inhibition) and positive control (e.g., level of activation) described below. […]

| pIC50 (SIRT1) | pIC50 (human SIRT3) | SMILES |
| --- | --- | --- |
| 3.82 to 4.00 | 4.00 to 4.29 | COc1ccccc1C(=O)Nc1cccc(/C=C/C(=O)N2CCCNCC2)c1 [Compound 15] |
|  | 3.82 to 4.00 | N#Cc1cccc(C(=O)Nc2ccc(-c3cc(C(N)=O)co3)cc2)c1 [Compound 16] |
|  | 4.00 to 4.29 | O=C(Nc1cccc(/C=C/C(=O)N2CCCNCC2)c1)c1ccc(F)c(C(F)(F)F)c1 [Compound 17] |
|  | 4.00 to 4.29 | COc1ccc(C(=O)Nc2cccc(/C=C/C(=O)N3CCCNCC3)c2)cc1OC [Compound 18] |
